Consider 12 compounds from ChEMBL document CHEMBL1201862, “PubChem BioAssay data set” (2004).

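Grown in 96-well plates, cells were treated for 48 hours with each compound at five concentrations. Insufficient inhibition: endpoint recorded as highest concentration tested. The concentration for 50% growth inhibition is given as GI50.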 Active and inactive are the calls of the source. No stated cut-off is given here; in the data, active = GI50 up to about 1.1 µM and inactive = higher.

Among the test systems are M19-MEL; DMS-273; XF498; DMS-114; UO-31; KM-20L2; Malme-3M; NCI/ADR-RES; UACC-257; DLD-1; NCI-H522; TK-10; M14; SR.
Holding throughout (experiment): inhibition of tumour cell growth, NCI panel, 48 h

Consider `O=C(O)c1cn2c3c(cc(N4CCN(CCO)CC4)cc3c1=O)SCC2`, for which the GI50 with M19-MEL was > 80.7 µM (inactive); in the assay with DMS-273 it was > 100 µM (inactive); with XF498, 23.2 µM (inactive); with DMS-114, 51.3 µM (inactive); in the assay with UO-31, > 100 µM (inactive); with KM-20L2, > 100 µM (inactive). Besides, the GI50 was 37.2 µM (inactive) in the assay on Malme-3M; > 89.7 µM (inactive) with NCI/ADR-RES; > 100 µM (inactive) with UACC-257; > 100 µM (inactive) in the assay on DLD-1; 26.5 µM (inactive) in the assay with NCI-H522.

Consider `O=Cc1c(Cn2ccnc2)c2cc([N+](=O)[O-])ccc2n1Cc1ccccc1`, for which the GI50 in the assay on M19-MEL is > 69.2 µM (inactive); in the assay with DMS-273, > 100 µM (inactive); in the assay with XF498, > 100 µM (inactive); with DMS-114 it was > 100 µM (inactive); with UO-31, > 60.1 µM (inactive); with KM-20L2, 89.9 µM (inactive). In addition, the GI50 in the assay on Malme-3M is > 100 µM (inactive); in the assay on NCI/ADR-RES, > 61.8 µM (inactive); with UACC-257, > 100 µM (inactive); with DLD-1, > 100 µM (inactive); in the assay on NCI-H522 it was > 100 µM (inactive).

As for `C=C1C(=O)OC2/C=C(\C(=O)O)CC/C=C(\C)CC(OC(=O)/C=C(\C)CC)C12` (stereo not given), the GI50 in the assay on M19-MEL was 15.6 µM (inactive); in the assay on TK-10, 34.6 µM (inactive); in the assay on DMS-273, 19 µM (inactive); with XF498, 18.3 µM (inactive); with M14, 16.7 µM (inactive); with DMS-114, 15.4 µM (inactive). The GI50 is 19.9 µM (inactive) in the assay with UO-31; 19.6 µM (inactive) in the assay with KM-20L2; 18.2 µM (inactive) in the assay on Malme-3M; > 100 µM (inactive) with SR; 18.2 µM (inactive) with UACC-257; 16.7 µM (inactive) with DLD-1. Besides, the GI50 in the assay with NCI-H522 was 17.8 µM (inactive).

As to `CCOC(=O)[C@H]1Nc2ccc(Cl)cc2[C@H]2c3ccccc3O[C@H]21`, the GI50 with M19-MEL is > 100 µM (inactive); with TK-10 it was 39.8 µM (inactive); in the assay on DMS-273, 30.1 µM (inactive); in the assay with XF498, > 100 µM (inactive); in the assay on M14 it was 41.2 µM (inactive); in the assay with DMS-114, > 100 µM (inactive). Further, the GI50 in the assay on UO-31 was > 100 µM (inactive); in the assay with KM-20L2, > 100 µM (inactive); in the assay on SR, 94.8 µM (inactive); with UACC-257 it was 36.1 µM (inactive); with DLD-1 it was 63 µM (inactive); in the assay on NCI-H522 it was > 100 µM (inactive).

In the case of `O=S(=O)(O)c1ccc(/N=N\c2ccc(/N=N\c3ccc(/C=C/c4ccc(/N=[N+](/[O-])c5ccc(/C=C/c6ccc(/N=N/c7ccc(/N=N\c8ccc(S(=O)(=O)O)cc8)cc7)cc6S(=O)(=O)O)c(S(=O)(=O)O)c5)cc4S(=O)(=O)O)c(S(=O)(=O)O)c3)cc2)cc1`, the GI50 in the assay on M19-MEL, in the assay on DMS-273, in the assay on XF498, in the assay on DMS-114, in the assay on UO-31 and in the assay on KM-20L2 was > 100 µM (inactive) each time. The GI50 in the assay on Malme-3M is > 100 µM (inactive); in the assay on NCI/ADR-RES, > 100 µM (inactive); in the assay with UACC-257 it was > 100 µM (inactive); in the assay on DLD-1 it was > 100 µM (inactive); with NCI-H522, 86.3 µM (inactive).

For the compound `COC(=O)C1C(O)C(C)C(O)OC1C(C)C(O)C(C)/C=C\C=C(/C)C(=O)Nc1c(C)c(OC(C)=O)c2c(c1O)C(=O)C(C)=C1OCOC(/C(C)=C/C(C)=O)=C12` (stereo not given), the GI50 in the assay on M19-MEL was 13.3 µM (inactive); with DMS-273, 13.3 µM (inactive); in the assay with XF498, 13.8 µM (inactive); with DMS-114, 10.1 µM (inactive); in the assay with UO-31 it was 16.4 µM (inactive); with KM-20L2, 12.9 µM (inactive). Further, the GI50 is 13.5 µM (inactive) in the assay on Malme-3M; 15.1 µM (inactive) in the assay on NCI/ADR-RES; 12.5 µM (inactive) in the assay with UACC-257; 8.93 µM (inactive) in the assay on DLD-1; 2.25 µM (inactive) in the assay on NCI-H522.

Turning to `CCCCCCCCCCCCCCCCNCC(O)CN` (stereo not given), the GI50 in the assay on M19-MEL was 2.4 µM (inactive); with DMS-273, 3.96 µM (inactive); in the assay on XF498, 7.29 µM (inactive); with DMS-114 it was 5.69 µM (inactive); in the assay on UO-31, 7.73 µM (inactive); with KM-20L2, 2.65 µM (inactive). Besides, the GI50 in the assay with Malme-3M is 16.2 µM (inactive); in the assay with NCI/ADR-RES, 2.22 µM (inactive); in the assay with UACC-257, 9.89 µM (inactive); in the assay on DLD-1, 1.87 µM (inactive); in the assay with NCI-H522, 14.5 µM (inactive).

With `CC[C@@]1(O)C[C@H](OC2CC(N(C)C)C(O)C(C)O2)c2c(cc3c(c2O)C(=O)c2c(O)ccc(O)c2C3=O)[C@H]1C(=O)OC` (stereo not given in full), the GI50 in the assay on M19-MEL is 0.0461 µM (active); with DMS-273, 0.0213 µM (active); in the assay with XF498, 0.106 µM (active); with DMS-114, 0.119 µM (active); in the assay with UO-31, 0.158 µM (active); with KM-20L2, 0.0702 µM (active). For the same compound, the GI50 in the assay on Malme-3M was 0.0807 µM (active); with NCI/ADR-RES, 0.0526 µM (active); with UACC-257, 0.0863 µM (active); in the assay on DLD-1, 0.0514 µM (active); in the assay with NCI-H522 it was 0.0521 µM (active).

Regarding `COc1cc(O)c2c(c1)C(=O)c1cc3c(c(O)c1C2=O)C(OC1OC(C)C(O)C(O)C1OC)C(OC)C(C)(O)C3=O` (stereo not given), the GI50 in the assay on M19-MEL was 0.532 µM (active); with DMS-273 it was 0.644 µM (active); in the assay with XF498 it was 3.95 µM (inactive); with DMS-114 it was 1.61 µM (inactive); in the assay with UO-31, 2.09 µM (inactive); in the assay on KM-20L2 it was 1.1 µM (active). Besides, the GI50 with Malme-3M is 0.893 µM (active); with NCI/ADR-RES it was 3.48 µM (inactive); in the assay with UACC-257 it was 0.723 µM (active); with DLD-1, 2.22 µM (inactive); with NCI-H522 it was 1.93 µM (inactive).

`O=C(O)C1=C(CO)Oc2cc3c(cc2C1c1ccc2c(c1)OCO2)OCO3` (stereo not given): the GI50 in the assay with M19-MEL, in the assay on TK-10, in the assay with DMS-273, in the assay on XF498, in the assay on M14 and with DMS-114 was > 100 µM (inactive) each time. Further, the GI50 in the assay with UO-31, with KM-20L2, with Malme-3M, in the assay on UACC-257 and with DLD-1 was > 100 µM (inactive) in each case.

Take `O=C(NC(Cc1ccc(I)cc1)C(=O)O)c1ccc(Cl)cc1` (stereo not given): the GI50 with M19-MEL was > 100 µM (inactive); in the assay on DMS-273 it was > 100 µM (inactive); with XF498, > 80.9 µM (inactive); in the assay on UO-31 it was > 100 µM (inactive); with KM-20L2, > 100 µM (inactive); in the assay with Malme-3M, 89.7 µM (inactive). In addition, the GI50 in the assay on NCI/ADR-RES is > 100 µM (inactive); with UACC-257, > 100 µM (inactive); in the assay with DLD-1, > 100 µM (inactive); with NCI-H522 it was 74.3 µM (inactive).

For `O=C(Nc1ccc(Cl)cc1)C(=O)C(C(=O)c1ccccc1-c1ccccc1)C1OC(=O)c2ccccc21` (stereo not given), the GI50 was 19.4 µM (inactive) in the assay on M19-MEL; 21.4 µM (inactive) with TK-10; 29 µM (inactive) in the assay with DMS-273; 17.9 µM (inactive) with XF498; 20 µM (inactive) in the assay on M14; 16.7 µM (inactive) in the assay on DMS-114. Also, the GI50 in the assay with UO-31 was 19.4 µM (inactive); in the assay with KM-20L2 it was 23.7 µM (inactive); with SR, 17.6 µM (inactive); in the assay with UACC-257, 21.9 µM (inactive); in the assay on DLD-1 it was 29 µM (inactive); in the assay on NCI-H522, 14.2 µM (inactive).
